The values that follow come from US11040026B2, “Muscarinic M1 receptor positive allosteric modulators” (SUVEN LIFE SCIENCES LIMITED, priority 2016, dated 2021).

The target of data set [1] is T1, muscarinic M1 receptor (Homo sapiens, UniProt P11229).
T1 sequence (P11229 1-460): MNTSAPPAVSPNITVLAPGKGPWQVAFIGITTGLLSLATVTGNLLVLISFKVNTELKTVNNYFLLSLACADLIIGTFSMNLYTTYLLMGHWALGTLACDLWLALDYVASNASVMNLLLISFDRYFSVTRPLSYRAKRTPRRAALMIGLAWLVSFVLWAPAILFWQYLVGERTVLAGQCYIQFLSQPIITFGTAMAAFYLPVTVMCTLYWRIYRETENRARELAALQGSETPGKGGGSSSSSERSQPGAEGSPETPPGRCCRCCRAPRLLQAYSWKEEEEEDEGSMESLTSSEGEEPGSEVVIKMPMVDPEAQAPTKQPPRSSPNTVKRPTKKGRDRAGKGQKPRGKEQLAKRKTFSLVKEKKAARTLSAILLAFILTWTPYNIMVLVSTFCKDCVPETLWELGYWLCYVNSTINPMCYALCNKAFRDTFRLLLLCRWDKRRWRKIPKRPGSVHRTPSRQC
Description: Allosteric potency EC50 for muscarinic M1 receptor (CHO pCRE-Luc reporter assay). It counts as cell-based. The following applies: in presence of EC20 of acetylcholine; CHO cells, luciferase reporter, 4 hours. In a few lines: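 Stable CHO line with recombinant human M1 and cAMP-response-element luciferase reporter, serum-starved overnight. Test compounds at increasing concentrations added with an EC20 of acetylcholine, 4 h at 37 °C; luminescence read after lysis. EC50 = concentration giving 50% stimulation of luciferase activity in the presence of EC20 acetylcholine.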
(In general: Reporter assays use an easily measured gene product as a stand-in for the process of interest.)

Data set [2] is described as follows: Rodent pharmacokinetic study. It counts as in vivo, Male Wistar rats. The following applies: rat; for AUC(0-t) / clearance / half-life / Cmax: male, Wistar, plasma; for F: oral (gavage) 3 mg/kg vs intravenous 1 mg/kg. As for the experimental part:
Rodent Pharmacokinetic Study
Male Wistar rats (260±50 grams) were used as experimental animals. Animals were housed individually in polypropylene cage. Two days prior to study, male Wistar rats were anesthetized with isoflurane for surgical placement of jugular vein catheter. Rats were randomly divided for oral (3 mg/kg) and intravenous (1 mg/kg) dosing (n=3/group) and fasted overnight before oral dosing (p.o.). However, rats allocated to intravenous dosing food and water was provided ad libitum.
At pre-determined point, blood was collected through jugular vein and replenished with an equivalent volume of normal saline. Collected blood was transferred into a labeled eppendorf tube containing 10 μL of heparin as an anticoagulant. Typically blood samples were collected at following time points: 0.08, 0.25, 0.5, 1, 2, 4, 6, 8, and 24 hours post dose. Blood was centrifuged at 4000 rpm for 10 minutes. Plasma was separated and stored frozen at −80° C. until analysis. The concentrations of the test compounds were quantified in plasma by qualified LC-MS/MS method using suitable extraction technique. The test compounds were quantified in the calibration range around 1-1000 ng/mL in plasma. Study samples were analyzed using calibration samples in the batch and quality control samples spread across the batch.
Pharmacokinetic parameters Cmax, AUCt, T1/2, Clearance and Bioavailability (F) were calculated by non-compartmental model using standard non-compartmental model by using Phoenix WinNonlin 6.0.4 version Software package.

Data set [3] is described as follows: Rodent brain penetration study. In kind it is in vivo, Male Wistar rats. The following applies: male, Wistar, brain and plasma, po; rat, 3 mg/kg, p.o., brain-plasma ratio; read-out: Single dose Rat Brain Penetration (Cb/Cp) at 3 mg/kg, p.o. As for the experimental part: Rodent Brain Penetration Study
Male Wistar rats (260±40 grams) were used as experimental animals. Three animals were housed in each cage. Animals were given water and food ad libitum throughout the experiment and maintained on a 12 hours light/dark cycle.
Brain penetration was determined in discrete manner in rats. One day prior to dosing day, male Wistar rats were acclimatized and randomly grouped according to their weight. At each time point (0.50, 1 and 2 hours) n=3 animals were used.
The test compounds were suitably preformulated and administered orally at (free base equivalent) 3 mg/kg. Blood samples were removed via cardiac puncture by using isoflurane anesthesia. The animals were sacrificed to collect brain tissue. Plasma was separated and brain samples were homogenized and stored frozen at −20° C. until analysis. The concentrations of the test compounds in plasma and brain were determined using LC-MS/MS method.
The test compounds were quantified in plasma and brain homogenate by qualified LC-MS/MS method using suitable extraction technique. The test compounds were quantified in the calibration range of 1-500 ng/mL in plasma and brain homogenate. Study samples were analyzed using calibration samples in the batch and quality control samples spread across the batch. Extent of brain-plasma ratio (Cb/Cp) was calculated

The next data set concerns Male Wistar rats. Description: Object recognition task model. It counts as in vivo. The following applies: rat, p.o.; for Exploration time mean ± S.E.M, Familiar object / Exploration time mean ± S.E.M, Novel object: choice trial 24 hours after T1. As for the experimental part: Object Recognition Task Model
Male Wistar rats (8-10 weeks old) were used as experimental animals. Four animals were housed in each cage. Animals were kept on 20% food deprivation from a day prior to experimentation. Water was provided ad libitum throughout the experiment. Animals were maintained on a 12 hours light/dark cycle in temperature and humidity controlled room. The experiment was carried out in an circular or square arena made up of acrylic. Rats were habituated to individual arenas for up to 1 hour in the absence of any objects on day 1.
One group of 12 rats received vehicle and another set of animals received test compounds, before familiar (T1) and choice (T2) trials. During the familiarization phase, (T1), the rats were placed individually in the arena for 3 minutes, in which two identical objects (a1 and a2) were positioned 10 cm from the wall. 24 hours after T1, trial for long-term memory test was performed. The same rats were placed in the same arena as they were placed in T1 trial. During the choice phase (T2) rats were allowed to explore the arena for 3 minutes in presence of a copy of familiar object (a3) and one novel object (b). During the T1 and T2 trial, explorations of each object (defined as sniffing, licking, chewing or having moving vibrissae whilst directing the nose towards the object at a distance of less than 1 cm) were recorded using stopwatch.
T1 is the total time spent exploring the familiar objects (a1+a2).
T2 is the total time spent exploring the familiar object and novel object (a3+b).
The object recognition test was performed as described in Behav. Brain Res., 1988, 31, 47-59.

Data set [4] addresses T1, muscarinic M1 receptor. The following applies: literature report; cited from earlier work.
The conditions of data set [5]: cited from earlier work.

`Cn1ccc2c(Cc3ccc(Cl)nc3)cc(C(=O)N[C@H]3CCCC[C@@H]3O)nc21` [Example 18, N-[(1S,2S)-2-Hydroxycyclohexyl]-4-(2-chloropyridin-5-ylmethyl)-1-methyl-1H-pyrrolo[2,3-b]pyridine-6-carboxamide]: on muscarinic M1 receptor [1], the EC50 (commonly the concentration that produces a half-maximal response) turned out to be 38 nM. In addition, in data set [2] (intravenous (bolus), 1 mg/kg), the AUC(0-t) – broadly, the area under the concentration-time curve up to a stated or last time point – came to 853 ± 109 ng·h/mL; the clearance (as a rule, the volume of plasma or blood freed of the substance per unit of time) turned out to be 20 ± 3 mL/min/kg; the half-life – broadly, the time in which the quantity being followed falls by half – is 1.3 ± 0.2 h. Moreover, in data set [2] (oral (gavage), 3 mg/kg), the AUC(0-t) is 2710 ± 769 ng·h/mL, the concentration peaked (Cmax) at 887 ± 74 ng/mL and the half-life was 3.6 ± 0.1 h. This molecule also registered a F in data set [2] of 106 ± 30%. For the same molecule, the Kp in data set [3] worked out at 0.27 ± 0.06. In the data set with Male Wistar rats (10 mg/kg), the Inference entry is reported as “Active”; the “Exploration time mean ± S.E.M, Familiar object” value worked out at 8.00 ± 2.88 s; the “Exploration time mean ± S.E.M, Novel object” value is 14.38 ± 1.62 s.
For the molecule `CN1CCc2c(Cc3ccnc(F)c3)cc(C(=O)N[C@H]3CCCC[C@@H]3O)nc21` [Example 73, N-[(1S,2S)-2-Hydroxycyclohexyl]-4-(2-fluoropyridin-4-ylmethyl)-1-methyl-2,3-dihydro-1H-pyrrolo[2,3-b]pyridine-6-carboxamide], at muscarinic M1 receptor [1], the EC50 was found to be 786 nM. In data set [2] (intravenous (bolus), 1 mg/kg), this molecule showed an exposure AUC(0-t) of 742 ± 40 ng·h/mL, a clearance of 22 ± 1 mL/min/kg and a half-life of 1.1 ± 0.3 h. For the same molecule, in data set [2] (oral (gavage), 3 mg/kg), the AUC(0-t) is 1740 ± 296 ng·h/mL, the concentration peaked (Cmax) at 1100 ± 85 ng/mL and the half-life was 1.2 ± 0.1 h. This molecule came in with a F in data set [2] of 78 ± 13%.
Regarding `O=C(N[C@H]1CCCC[C@@H]1O)c1cc(Cc2ccc(F)cc2)c2c(n1)OCCO2` [Example 103, N-[(1S,2S)-2-Hydroxycyclohexyl]-8-(4-fluorobenzyl)-2,3-dihydro-[1,4]dioxino[2,3-b]pyridine-6-carboxamide], the EC50 at muscarinic M1 receptor [1] turned out to be 131 nM. In data set [2] (intravenous (bolus), 1 mg/kg), this molecule had an AUC(0-t) of 791 ± 11 ng·h/mL, a clearance of 21 mL/min/kg and a half-life of 0.7 ± 0.1 h. In data set [2] (oral (gavage), 3 mg/kg), the AUC(0-t) was determined as 1090 ± 102 ng·h/mL, the Cmax (usually the highest concentration seen after dosing) worked out at 825 ± 41 ng/mL and the half-life is 0.5 ± 0.2 h. This molecule also had a F in data set [2] of 46 ± 4%. The Kp in data set [3] came to 0.63 ± 0.05. In the data set with Male Wistar rats (3 mg/kg), the Inference entry is reported as “Active”; the “Exploration time mean ± S.E.M, Familiar object” value was 12.20 ± 1.59 s; the “Exploration time mean ± S.E.M, Novel object” value worked out at 19.17 ± 3.01 s.
Turning to `N#CC1(c2ccccn2)CCN(Cc2cc(C(=O)O)c(=O)n3ccccc23)CC1` [PQCA, 1-{[4-cyano-4-(pyridine-2-yl)piperidin-1-yl]methyl}-4-oxo-4H-quinolizine-3-carboxylic acid], the “Selectivity for muscarinic M1 receptor over the other muscarinic receptor subtypes” value on muscarinic M1 receptor [4] is on record as “highly selective”. The “Efficacy in preclinical models of cognition” value in data set [5] (Psychopharmacology, 2013, 225(1), 21-30) is listed as “efficacious”. Besides, the Gastrointestinal side effects result in data set [5] (at doses equal to or less than a fivefold margin from the minimum effective dose required to improve cognition) was “no gastrointestinal side effects”.
As for `CN1CCOc2c(Cc3ccc(F)cc3)cc(C(=O)N[C@H]3CCCC[C@@H]3O)nc21` [Example 120, N-[(1S,2S)-2-Hydroxycyclohexyl]-8-(4-fluorobenzyl)-4-methyl-2H-pyrido[3,2-b][1,4]oxazine-6-carboxamide], the EC50 at muscarinic M1 receptor [1] worked out at 407 nM. In data set [2] (intravenous (bolus), 1 mg/kg), this molecule gave an AUC(0-t) of 593 ± 79 ng·h/mL, a clearance of 28 ± 4 mL/min/kg and a half-life of 1.2 ± 0.3 h. In data set [2] (oral (gavage), 3 mg/kg), this molecule showed an AUC(0-t) of 234 ± 76 ng·h/mL, a Cmax of 69 ± 12 ng/mL and a half-life of 3.5 ± 3.3 h. In data set [2], this molecule returned an F of 13 ± 4%. For the same molecule, the Kp in data set [3] stood at 1.37 ± 0.1. In the data set with Male Wistar rats (10 mg/kg), the Inference entry was “Active”; the “Exploration time mean ± S.E.M, Familiar object” value was 10.48 ± 1.02 s; the “Exploration time mean ± S.E.M, Novel object” value was 15.43 ± 1.23 s.
For the molecule `Cl.O=C(N[C@H]1CCCC[C@@H]1O)c1cc(Cc2ccc(F)cc2)c2c(n1)CNCC2` [Example 87, N-[(1S,2S)-2-Hydroxycyclohexyl]-4-(4-fluorobenzyl)-5,6,7,8-tetrahydro[1,7]naphthyridine-2-carboxamide Hydrochloride], the EC50 on muscarinic M1 receptor [1] is 241 nM. For the same molecule, in data set [2] (intravenous (bolus), 1 mg/kg), the AUC(0-t) came to 224 ± 66 ng·h/mL, the clearance was found to be 79 ± 27 mL/min/kg and the half-life is 1.5 ± 0.1 h. In data set [2] (oral (gavage), 3 mg/kg), this molecule gave an AUC(0-t) of 219 ± 70 ng·h/mL, a Cmax of 97 ± 39 ng/mL and a half-life of 0.7 ± 0.3 h. In data set [2], this molecule showed an F of 32 ± 10%. For the same molecule, the Kp in data set [3] is 0.15 ± 0.01.
Regarding `Cn1ccc2c(Cc3ccc(F)cc3)cc(C(=O)N[C@@H]3COCC[C@@H]3O)nc21` (single isomer, unassigned; isomer-i) [Example 65, cis-N-(4-Hydroxytetrahydropyran-3-yl)-4-(4-fluorobenzyl)-1-methyl-1H-pyrrolo[2,3-b]pyridine-6-carboxamide (Isomer-I)], in data set [3], the Kp turned out to be 0.32.
In data set [2] (intravenous (bolus), 1 mg/kg), `CN1CCOc2c(Cc3ccc(F)cc3)cc(C(=O)N[C@@H]3CCOC[C@H]3O)nc21` (single isomer, unassigned; isomer-ii) [Example 124, trans-N-(3-Hydroxytetrahydropyran-4-yl)-8-(4-fluorobenzyl)-4-methyl-2H-pyrido[3,2-b][1,4]oxazine-6-carboxamide (Isomer-II)] had an area under the curve AUC(0-t) of 787 ± 130 ng·h/mL, a clearance of 21 ± 3 mL/min/kg and a half-life of 1.1 ± 0.1 h. Also, in data set [2] (oral (gavage), 3 mg/kg), the AUC(0-t) amounted to 526 ± 126 ng·h/mL, the highest level (Cmax) was 306 ± 66 ng/mL and the half-life was 0.5 h. In data set [2], this molecule displayed an F of 22 ± 5%. The Kp in data set [3] worked out at 0.52 ± 0.05.
